The text below walks through data of patent US20110065712A1, “TRICYCLIC COMPOUNDS AND PHARMACEUTICAL USES THEREOF” (CYLENE PHARMACEUTICALS , INC., priority 2009, published 2011).

One assay has as its target recombinant Pim-1 (Homo sapiens, UniProt P11309). In words: Pim-1 assay (33P-ATP, filter plate). The format is biochemical. The settings on record: read-out: PIM1: IC50. As to the method:
The following procedure was used to assay the Pim-1 kinase activity of compounds of the invention. Other methods for assaying Pim-1 and other Pim kinases, as well as methods to assay for activity against the various kinases disclosed herein are known in the art.
In a final reaction volume of 50 ul, recombinant Pim-1 (1 ng) was incubated with 12 mM MOPS pH 7.0, 0.4 mM EDTA, glycerol 1%, brij 35 0.002%, 2-mercaptoethanol 0.02%, BSA 0.2 mg/ml, 100 uM KKRNRTLTK, 10 mM MgAcetate, 15 uM ATP, [γ-^33P-ATP] (specific activity approx. […]), DMSO 4% and test inhibitor compound at the required concentration. The reaction was initiated by the addition of the magnesium ATP mixture. After 40 min incubation at 23° C., the reactions were quenched by the addition of 100 ul 0.75% Phosphoric acid, and the labeled peptide collected by filtration through a phosphocellulose filter plate. The plate was washed 4 times with 0.075% phosphoric acid (100 ul per well) and then, after the addition of scintillation fluid (20 ul per well), the counts were measured by a scintillation counter.

The target of the next assay is recombinant human Pim-2 (Homo sapiens, UniProt Q9P1W9). In words: PIM-2 assay (33P-ATP, filter plate). The class given is biochemical. Particulars: read-out: PIM2: IC50. As to the method:
Test compounds dissolved and diluted in DMSO (2 μl) were added to a reaction mixture comprising 10 μl of 5× Reaction Buffer (40 mM MOPS pH 7.0, 5 mM EDTA), 10 μl of recombinant human Pim-2 solution (4 ng Pim-2 dissolved in dilution buffer (20 mM MOPS pH 7.0; EDTA 1 mM; 5% Glycerol; 0.01% Brij 35; […]; […] 2-mercaptoethanol; 1 mg/ml BSA)) and 8 ul of water. Reactions were initiated by the addition of 10 ul of ATP Solution (49% (15 mM MgCl2; 75 uM ATP) 1% ([γ-^33P]ATP: Stock 1mCi/1000; 3000Ci/mmol (Perkin Elmer)) and 10 ul of substrate peptide solution (RSRSSYPAGT, dissolved in water at a concentration of 1 mM), Reactions were maintained for 10 min at 30° C. The reactions were quenched with 100 ul of 0.75% phosphoric acid, then transferred to and filtered through a Phosphocellulose filter plate (Millipore, MSPH-N6B-50). After washing each well 4 times with 0.75% phosphoric acid, scintillation fluid (20 uL) was added to each well and the residual radioactivity was measured using a Wallac […] counter.

Some results are limits rather than exact numbers.

Sequence of recombinant Pim-1 (P11309 whole entry): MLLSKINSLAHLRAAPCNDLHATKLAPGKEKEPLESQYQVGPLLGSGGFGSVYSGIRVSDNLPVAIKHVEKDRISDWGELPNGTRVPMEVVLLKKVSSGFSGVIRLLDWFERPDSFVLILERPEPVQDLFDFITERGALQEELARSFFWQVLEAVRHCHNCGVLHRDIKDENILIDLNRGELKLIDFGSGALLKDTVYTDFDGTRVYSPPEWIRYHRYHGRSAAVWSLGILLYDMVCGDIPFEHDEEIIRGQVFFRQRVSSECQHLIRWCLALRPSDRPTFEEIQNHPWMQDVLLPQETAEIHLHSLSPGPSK
Sequence of recombinant human Pim-2 (Q9P1W9 whole entry): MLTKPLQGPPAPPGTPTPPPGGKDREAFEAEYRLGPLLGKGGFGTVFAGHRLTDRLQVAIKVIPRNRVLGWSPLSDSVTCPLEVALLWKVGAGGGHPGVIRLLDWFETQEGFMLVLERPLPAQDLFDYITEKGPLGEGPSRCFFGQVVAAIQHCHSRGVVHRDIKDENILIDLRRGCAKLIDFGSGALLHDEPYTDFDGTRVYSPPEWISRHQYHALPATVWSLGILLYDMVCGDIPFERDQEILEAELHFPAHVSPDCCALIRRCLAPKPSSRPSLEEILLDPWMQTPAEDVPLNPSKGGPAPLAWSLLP

Take `NC(=O)c1cnn2c1nc(Nc1ccccc1Cl)c1ccccc12` [Compound B, 5-(2-chlorophenylamino)pyrazolo[1,5-a]quinazoline-3-carboxamide]: the IC50 at recombinant Pim-1 and at recombinant human Pim-2 was below 1000 nM each time.
